Results: patent publication US20230416239A1, “COMPOUNDS AND METHODS FOR TREATING A CYTOKINE-MEDIATED DISEASE” (CONSERVATOIRE NATIONAL DES ARTS ET MÉTIERS, priority 2020, published 2023)

What was measured:
TNFa/TNFRI interaction = TNFa/TNFRI interaction (Homo sapiens, UniProt P01375); assay: TNFa/TNFRI interaction displacement test; type: binding; conditions: for Displacement (%): compounds at 50 μM, human TNFRI 100 ng/ml; for Displacement EC50 TNFa in presence of compound: Difference: Compound EC50 minus SPD304 EC50;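 on Displacement EC50 TNFa in presence of compound: Difference: SPD304 reference at 20 µM final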
In short: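 Plates coated overnight at 4° C with human TNFRI (100 ng/ml) and blocked with 2% BSA, then test mixtures were incubated overnight at 4° C. Bound cytokine detected with biotinylated anti-cytokine antibody (2 h, 37° C) and avidin-HRP, read as OD at 450 nm.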

IL-4 = biological target: T1, IL-4 (Homo sapiens, UniProt P05112); assay: Immunoassay binding test, IL-4; conditions: for IC50: IL-4 400 ng/ml, receptor 100 ng/ml, read-out: BINDING IL4 IC50
T1 sequence (P05112 25-153): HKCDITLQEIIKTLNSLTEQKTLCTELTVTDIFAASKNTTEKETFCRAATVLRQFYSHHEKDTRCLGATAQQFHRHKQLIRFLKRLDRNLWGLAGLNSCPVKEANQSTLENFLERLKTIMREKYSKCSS
In short: (§1)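 Compounds (final 100 to 0.78 μM) were preincubated 2 h at 37 °C with a fixed amount of cytokine; for IL-6, IL-6Ra was also present at 200 ng/ml final. Mixtures were then incubated overnight at 4 °C on receptor-coated plates. Bound cytokine was detected with biotinylated anti-cytokine antibody and avidin-HRP, read as OD at 450 nm.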

IL-13 = IL-13 (Homo sapiens, UniProt P35225); assay: Immunoassay binding test, IL-13; conditions: for IC50: IL-13 400 ng/ml, receptor 100 ng/ml, read-out: BINDING IL13 IC50
In short: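 Receptor-coated plates; compounds (100 to 0.78 μM final) preincubated 2 h at 37° C with fixed cytokine, then bound to receptor overnight at 4° C. Bound cytokine detected with biotinylated anti-cytokine antibody and avidin-HRP, OD 450 nm.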

IL-6 = IL-6 (Homo sapiens, UniProt P05231); assay: Immunoassay binding test, IL-6 (gp130 receptor, IL-6Ra present); conditions: IL-6Ra 200 ng/ml
In short: as §1

TNFα = TNFα (Homo sapiens, UniProt P01375); assay: Immunoassay binding test, TNFa; conditions: compounds 100 to 0.78 μM; TNFα 10 ng/ml, receptor 100 ng/ml; read-out: BINDING TNF IC50
In short: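 ELISA-type binding test: receptor-coated plates blocked with 2% BSA, then cytokine (six-point dilution series) preincubated 2 h at 37 °C and bound overnight at 4 °C. Detection used biotinylated anti-cytokine antibody and avidin-HRP, read as OD at 450 nm. For IL-6, IL-6Ra was present at 200 ng/ml final.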

Chain of IL-13 (P35225 25-146, species assumed): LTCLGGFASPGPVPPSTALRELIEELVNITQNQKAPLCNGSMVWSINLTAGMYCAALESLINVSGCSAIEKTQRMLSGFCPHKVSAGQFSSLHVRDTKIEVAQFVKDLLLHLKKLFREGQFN
Chain of IL-6 (P05231 30-212, species assumed): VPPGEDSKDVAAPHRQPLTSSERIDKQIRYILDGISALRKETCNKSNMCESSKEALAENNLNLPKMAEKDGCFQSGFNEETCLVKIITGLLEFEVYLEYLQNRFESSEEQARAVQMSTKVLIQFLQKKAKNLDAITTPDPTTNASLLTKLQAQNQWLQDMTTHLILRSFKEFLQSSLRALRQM
Chain of TNFa/TNFRI interaction (P01375 77-233 limits assumed): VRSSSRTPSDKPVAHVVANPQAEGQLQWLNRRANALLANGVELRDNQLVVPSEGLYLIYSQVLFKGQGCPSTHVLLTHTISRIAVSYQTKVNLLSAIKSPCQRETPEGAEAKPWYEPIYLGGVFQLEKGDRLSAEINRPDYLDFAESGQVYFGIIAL
Chain of TNFα (P01375 77-233 limits assumed, species assumed): as the sequence (P01375 77-233 limits assumed) above

Displacement (%) (TNFa/TNFRI interaction) | BINDING IL4 % Neutra at 100 μM (IL-4) [%] | IC50 (IL-4) [µM] | BINDING IL13 % Neutra at 100 μM (IL-13) [%] | IC50 (IL-13) [µM] | BINDING IL6 % Neutra at 100 μM (IL-6) [%] | IC50 (TNFα) [µM] | Displacement EC50 TNFa in presence of compound: Difference (TNFa/TNFRI interaction) | Structure (SMILES)
99 | 93.3 | 5.5 | 93.1 | 17.8 | 0 | 8.9 |  | O=S(=O)(c1ccccc1)n1cc(CN(CCCCCNC2CCCCC2)Cc2ccnc(F)c2)c2ccccc21 [Compound 47, N1-cyclohexyl-N5-((2-fluoropyridin-4-yl)methyl)-N5-((1-(phenylsulfonyl)-1H-indol-3-yl)methyl)pentane-1,5-diamine]
101 | 95.8 | 34.5 | 75.2 | > 50 | 0 | 19 |  | CN(CCCCN(Cc1cccnc1F)Cc1cn(S(=O)(=O)c2ccccc2)c2ncccc12)C1CCCCC1 [Compound 94, N1-cyclohexyl-N4-((2-fluoropyridin-3-yl)methyl)-N1-methyl-N4-((1-(phenylsulfonyl)-1H-pyrrolo[2,3-b]pyridin-3-yl)methyl)butane-1,4-diamine]
125 | 97.7 | 3.9 | 76.3 | > 50 | 15.5 | 15.9 |  | CN(CCN(Cc1cccnc1)Cc1cn(-c2cccc(C(F)(F)F)c2)c2ccccc12)C1CCCCC1 [Compound 32]
121 | 96.3 | 7.8 | 53.9 | > 50 | −12 | 13.8 |  | CN(CCN(Cc1cccnc1)Cc1cn(S(=O)(=O)c2ccccc2)c2ccccc12)C1CCCCC1 [Compound 27]
157 | 96.4 | 2.7 | 94.2 | 11.2 | 16.4 | 19.9 | 4.2 ng/mL | CN(CCCCCN(Cc1cccnc1)Cc1cn(-c2cccc(C(F)(F)F)c2)c2ccccc12)C1CCCCC1 [Compound 40]
16 | 75.3 | > 50 | 0 |  | 0 | > 50 |  | CN(CCCCN(Cc1cccnc1F)Cc1cn(C)c2ccccc12)C1CCCCC1 [Compound 95]
165 | 99.5 | 4.8 | 88.2 | > 50 | 15.7 | 5.4 | 4.7 ng/mL | O=S(=O)(c1ccccc1)n1cc(CN(CCCCNC2CCCCC2)Cc2ccncc2)c2ccccc21 [Compound 16]
194 | 96.9 | 7.8 | 84.9 | > 50 | 2.1 | 11.1 | 8.3 ng/mL | O=S(=O)(c1ccccc1)n1cc(CN(Cc2ccncc2)CC2CCCN(C3CCCCC3)C2)c2ccccc21 (stereo not shown) [Compound 5]
167 | 99 | 6.3 | 94.8 | > 50 | 11.5 | 8.1 | 5.1 ng/mL | O=S(=O)(c1ccccc1)n1cc(CN(CCCCNC2CCCCC2)Cc2cccnc2)c2ccccc21 [Compound 15]
162 | 91.2 | 11.5 | 74.3 | > 50 | 0 | 7.5 |  | CN(CCOCCN(Cc1cccnc1F)Cc1cn(S(=O)(=O)c2ccccc2)c2ccccc12)C1CCCC1 [Compound 105, N-(2-(2-(((2-fluoropyridin-3-yl)methyl)((1-(phenylsulfonyl)-1H-indol-3-yl)methyl)amino)ethoxy)ethyl)-N-methylcyclopentanamine]
121 | 93.6 | 5.6 | 79.7 | > 50 | 0 | 12.1 |  | O=S(=O)(c1ccccc1)n1cc(CN(CCCCNC2CCC2)Cc2cccnc2F)c2ccccc21 [Compound 69, N′-cyclobutyl-N^4-((2-fluoropyridin-3-yl)methyl)-N^4-((1-(phenylsulfonyl)-1H-indol-3-yl)methyl)butane-1,4-diamine]
221 | 98.3 | 4 | 92.2 | 9.9 | 5.2 | 21.3 | Difference = 9 ng/ml | FC(F)(F)c1cccc(-n2cc(CN(Cc3cccnc3)CC3CCCN(C4CCCCC4)C3)c3ccccc32)c1 (stereo not shown) [Compound 4]
159 | 91.1 | 10.5 | 89.1 | 38.9 | 0 | 10.2 |  | O=S(=O)(c1ccccc1)n1cc(CN(CCOCCNC2CCCC2)Cc2cccnc2F)c2ccccc21 [Compound 103, N-(2-(2-(((2-fluoropyridin-3-yl)methyl)((1-(phenylsulfonyl)-1H-indol-3-yl)methyl)amino)ethoxy)ethyl)cyclopentanamine]
181 | 96.1 | 5.6 | 97.1 | > 50 | −21.5 | 4.6 |  | CN(CCCCCN(Cc1ccncc1)Cc1cn(S(=O)(=O)c2ccccc2)c2ccccc12)C1CCCCC1 [Compound 35]
140 | 98.1 | 4.9 | 85.8 | > 50 | 5.6 | 9.3 | 5.5 ng/mL | CN(CCCCN(Cc1cccnc1)Cc1cn(-c2cccc(C(F)(F)F)c2)c2ccccc12)C1CCCCC1 [Compound 23]
2 | 36.4 |  | 0 |  | 0 | > 50 |  | O=[N+]([O-])c1ccccc1S(=O)(=O)NCCCN(Cc1cccnc1)Cc1cn(S(=O)(=O)c2ccccc2)c2ccccc12 [Compound 60]
159 | 96 | 4.7 | 94.8 | > 50 | 23.7 | 14.7 | 4.2 ng/mL | CN(CCCCCN(Cc1ccncc1)Cc1cn(-c2cccc(C(F)(F)F)c2)c2ccccc12)C1CCCCC1 [Compound 39]
126 | 92.4 | 13.5 | 69.6 | > 100 | 1 | 11.5 |  | CN(CCCCN(Cc1cccnc1F)Cc1cn(S(=O)(=O)c2ccccc2)c2ccccc12)C1CCC1 [Compound 70, N′-cyclobutyl-N^4-((2-fluoropyridin-3-yl)methyl)-N′-methyl-N^4-((1-(phenylsulfonyl)-1H-indol-3-yl)methyl)butane-1,4-diamine]
172 | 96.3 | 12.3 | 58.2 | > 50 | 1.6 | 6.8 | 14.2 ng/mL | FC(F)(F)c1cccc(-n2cc(CN(CCCNC3CCCCC3)Cc3ccncc3)c3ccccc32)c1 [Compound 12]
120 | 96 | 5.7 | 81 | > 50 | 1.7 | 13.4 |  | CN(CCN(Cc1ccncc1)Cc1cn(-c2cccc(C(F)(F)F)c2)c2ccccc12)C1CCCCC1 [Compound 31]
11 | 33.5 | > 50 | 0 |  | 0 | > 50 |  | CN(C)S(=O)(=O)NCCCCN(Cc1cccnc1F)Cc1cn(S(=O)(=O)c2ccccc2)c2ccccc12 [Compound 78]
